Measured values: PMC11052077, “Discovery of Dolutegravir Derivative against Liver Cancer via Inducing Autophagy and DNA Damage” (Molecules, 2024)

How the values were obtained:
Assay type in all cases: cell-based, human
γ-H2AX in Huh7 cells = test: γ-H2AX immunofluorescence / DNA damage staining, Huh7; settings: Huh7, 5, 10, 20 μM, 24 h
Experimental: The phosphorylation of H2AX serves as a highly specific and sensitive molecular marker for DNA damage. Through Western blotting, we have confirmed that compounds 5e and 5p induce DNA damage in Huh7 and HepG2 cells. To further substantiate the inhibitory effect of compounds 5e and 5p on Huh7 cells, immunofluorescence was employed to assess their correlation with γ-H2AX.
The Huh7 cells with a density of 5 × 10^3 cells per well were seeded in a 96-well plate for overnight incubation. Then, different concentrations (0, 5 μM, 10 μM, 20 μM) of the compounds 5e and 5p were added to cells for 24 h. A DNA damage detection kit was used to dye the cells, and cells were observed and photographed by a fluorescent microscope. Cell nucleus is stained blue, and DNA damage is shown as green fluorescence.

[1] = tested on: Cyclin D, Cyclin E, β-catenin; test: Western blot, cell cycle-related proteins; settings: 2, 4, 8 μM, 48 h, Huh7, western blot
Experimental: (§1) To elucidate the impact of compounds 5e and 5p on the regulation of cell proliferation, we examined the expression levels of key proteins involved in cell growth processes, encompassing autophagy, apoptosis, cell cycle, and DNA damage (Figure 7).
(§2) Protein expression levels were measured by western blot. Huh7 cells were cultured in 12-well plates and different concentrations (0, 2, 4, 8 μM) of 5e and 5p were added for 48 h. Proteins were extracted from whole cells using radio-immunoprecipitation assay (RIPA) buffer containing a protease/phosphatase inhibitor cocktail (CST). Then, 10–15% sodium dodecyl sulfate polyacrylamide gel electrophoresis and nitrocellulose membranes (Millipore) were employed to separate and collect proteins. Antibodies used include LC3 (3868s, CST), Caspase3 (9662, CST), cyclin D (2922s, CST), cyclin E (20808s, CST), γH2AX (9718s, CST), β-Catenin (9562s, CST), and β-actin (4967s, CST).

Huh7 cells [2] = test: Apoptosis assay, Annexin V-FITC/PI flow cytometry; settings: 48 h
Experimental: Given the observed inhibitory effects of compounds 5e and 5p on cancer cell proliferation, we further investigated their impact on cell apoptosis. Apoptosis analysis was conducted on Huh7 cells treated with varying concentrations of 5e or 5p, utilizing Annexin V-FITC and PI staining, followed by flow cytometry to quantify apoptotic cells.
Huh7 cells were cultured in 6-well plates with a density of 3 × 10^5 cells/well. Different concentrations of 5e or 5p were added to cells for 48 h, respectively. The concentrations were 0, 2, 4, and 8 μM for Huh7 cells. After treatment, Annexin V-FITC Apoptosis Detection Kit (Elabscience, Wuhan, China) was used to determine the apoptotic ratio and FlowJo software v10 was used to analyze.

LC3 = test: Western blot, LC3; settings: 2, 4, 8 μM, 48 h, Huh7, western blot
Experimental: as §1, §2

hepG2 cells = test: CCK8 cell viability assay, hepG2
Experimental: This study aimed to assess the anti-proliferative activity of dolutegravir-1,2,3-triazole derivatives on hepatocellular carcinoma cell lines, Huh7 and hepG2. A comprehensive CCK8 assay was employed to evaluate the impact of these compounds on cell viability, with cells treated at a concentration of 20 μM for 48 h. HRM cells, a normal cell line, were included as a control for comparative analysis.
Human hepatocellular carcinoma cell lines Huh7 and hepG2 were obtained from ATCC (Manassas, VA, USA). Cells were cultured in DMEM or RPMI 1640 medium containing 10% FBS and 1% penicillin/streptomycin at 37 °C with a 5% CO2-humidified atmosphere.
CCK8 assay was used to measure cell viability. Cells with a density of 1 × 10^4 cells/well were seeded on 96-well plates. After adhesion, cells were treated with different diluted compounds or vehicle control DMSO and continued to be cultured for 48 h or 72 h, respectively. Then, CCK8 reagent was added for one hour incubation at 37 °C with 5% CO2. Absorbance was measured using a Microplate spectrophotometer (Thermo, Waltham, MA, USA) at 450 nm. The ratio of cell viability of control was taken as 100%. […] Then, IC50 of compounds were investigated using the prism statistical software 7.0.

γ-H2AX = test: Western blot, γ-H2AX; settings: 2, 4, 8 μM, 48 h, Huh7, western blot
Experimental: as §1, §2

Huh7 cells [3] = test: Cell cycle assay, PI staining flow cytometry; settings: 8 μM, 48 h
Experimental: To further investigate the effects of compounds 5e and 5p on regulation of the cell cycle, we treated cancer cells with different concentrations of 5e or 5p for 48 h and then analyzed cell cycle distribution using flow cytometry.
Huh7 cells were cultured in 6-well plates with a density of 3 × 10^5 cells/well. Cells were treated with different concentrations (0, 4, and 8 μM for Huh7) of 5e or 5p for 48 h respectively. Then the cell cycle was determined by PI staining using the flow cytometer(Thermo, Beijing, China).

Structure (SMILES): COc1c2n(cc(C(=O)Nc3cccc(-c4cn(-c5cccc(C(F)(F)F)c5)nn4)c3)c1=O)CC1OCCC(C)N1C2=O (stereo not shown) [Compound 5p]
- γ-H2AX expression by immunofluorescence (γ-H2AX in Huh7 cells): increased the expression of γ-H2AX
- Cyclin D, Cyclin E or β-catenin expression [1]: no significant differences
- apoptosis in Huh7 cells (Huh7 cells [2]; 2 μM): no significant impact
- apoptosis in Huh7 cells (Huh7 cells [2]; 4 μM): remarkable apoptosis
- apoptosis in Huh7 cells (Huh7 cells [2]; 8 μM): remarkable apoptosis
- LC3 protein expression (LC3): significant increase in expression
- Cell Viability (100%), 20 μM, 48 h, hepG2 (hepG2 cells; 20 μM, hepG2, CCK8, control taken as 100%): 30.66%
- IC50 (hepG2 cells; 48 h, hepG2, CCK8, read-out: half maximal inhibitory concentration (IC50), hepG2): 4.83 ± 1.17 µM
- γ-H2AX protein expression (DNA damage) (γ-H2AX): induction of γ-H2AX
- effect on S phase of cell cycle (Huh7 cells [3]): clearly decreased phase of S
